pIC50: −log10 of the molar value. Like-named read-outs stand apart in the source and are kept apart here.
Legend:
[1] = Metabolic stability in vitro, dog liver microsomes (calculation of Fmax); type: in vitro ADME
Procedure: (§1) The metabolic stability of test compounds in vitro was determined by incubating them at 1 μM with a suspension liver microsomes in 100 mM phosphate buffer, pH7.4 (NaH2PO4×H2O+Na2HPO4×2H2O) at a protein concentration of 0.5 mg/mL and at 37° C. The reaction was activated by adding a co-factor mix containing 1.2 mg NADP, 3 IU glucose-6-phosphate dehydrogenase, 14.6 mg glucose-6-phosphate and 4.9 mg MgCl2 in phosphate buffer, pH 7.4. Organic solvent in the incubations was limited to <0.2% dimethylsulfoxide (DMSO) and <1% methanol. During incubation, the microsomal suspensions were continuously shaken and aliquots were taken at 2, 8, 16, 30, 45 and 60 min, to which equal volumes of cold methanol were immediately added. Samples were frozen at −20° C. over night, subsequently centrifuged for 15 minutes at 3000 rpm and the supernatant was analyzed with an Agilent 1200 HPLC-system with LCMS/MS detection.
(§2) The half-life of a test compound was determined from the concentration-time plot. From the half-life the intrinsic clearances were calculated. Together with the additional parameters liver blood flow, specific liver weight and microsomal protein content the hepatic in vivo blood clearance (CL) and the maximal oral bioavailability (Fmax) were calculated for the different species. The following parameter values were used: Liver blood flow—1.3 L/h/kg (human), 2.1 L/h/kg (dog), 4.2 L/h/kg (rat); specific liver weight—21 g/kg (human), 39 g/kg (dog), 32 g/kg (rat); microsomal protein content—40 mg/g.
(§3) With the described assay only phase-I metabolism of microsomes is reflected, e.g. typically oxidoreductive reactions by cytochrome P450 enzymes and flavin mono-oxygenases (FMO) and hydrolytic reactions by esterases (esters and amides).

[2] = Metabolic stability in vitro, human liver microsomes (calculation of Fmax); type: in vitro ADME; conditions: for Human liver microsomes; Fmax [%]: 1 μM; for calculated maximal oral bioavailability (Fmax) at 1 μM: pH 7.4, determined by means of human liver microsomes, read-out: maximum oral bioavailability (Fmax) in human
Procedure: as §1, §2, §3

[3] = system: HeLa-MaTu-ADR, multidrug-resistant human cervical carcinoma cells; experiment: Proliferation assay, HeLa-MaTu-ADR cells (crystal violet); type: cell-based; conditions: read-out: IC50 determined in a HeLa-MaTu-ADR cell proliferation assay
Procedure: (§4) Cultivated tumor cells (MCF7, hormone dependent human mammary carcinoma cells, ATCC HTB22; NCI-H460, human non-small cell lung carcinoma cells, ATCC HTB-177; DU 145, hormone-independent human prostate carcinoma cells, ATCC HTB-81; HeLa-MaTu, human cervical carcinoma cells, EPO-GmbH, Berlin; HeLa-MaTu-ADR, multidrug-resistant human cervical carcinoma cells, EPO-GmbH, Berlin; HeLa human cervical tumor cells, ATCC CCL-2; B16F10 mouse melanoma cells, ATCC CRL-6475) were plated at a density of 5000 cells/well (MCF7, DU145, HeLa-MaTu-ADR), 3000 cells/well (NCI-H460, HeLa-MaTu, HeLa), or 1000 cells/well (B16F10) in a 96-well multititer plate in 200 μl of their respective growth medium supplemented 10% fetal calf serum. After 24 hours, the cells of one plate (zero-point plate) were stained with crystal violet (see below), while the medium of the other plates was replaced by fresh culture medium (200 μl), to which the test substances were added in various concentrations (0 μM, as well as in the range of 0.01-30 μM; the final concentration of the solvent dimethyl sulfoxide was 0.5%). The cells were incubated for 4 days in the presence of test substances. Cell proliferation was determined by staining the cells with crystal violet: the cells were fixed by adding 20 μl/measuring point of an 11% glutaric aldehyde solution for 15 minutes at room temperature. After three washing cycles of the fixed cells with water, the plates were dried at room temperature. The cells were stained by adding 100 μl/measuring point of a 0.1% crystal violet solution (pH 3.0). After three washing cycles of the stained cells with water, the plates were dried at room temperature. The dye was dissolved by adding 100 μl/measuring point of a 10% acetic acid solution. The extinction was determined by photometry at a wavelength of 595 nm. The change of cell number, in percent, was calculated by normalization of the measured values to the extinction values of the zero-point plate (=0%) and the extinction of the untreated (0 μm) cells (=100%). The IC50 values were determined by means of a 4 parameter fit.

[4] = Metabolic stability in vitro, rat liver microsomes (calculation of Fmax); type: in vitro ADME
Procedure: as §1, §2, §3

[5] = Solubility of compound A1 at 25° C. in different solvents; type: physicochemical
[6] = system: HeLa human cervical tumor cells; experiment: Proliferation assay, HeLa cells (crystal violet); type: cell-based
Procedure: as §4

human kinase Mps-1 [7] = target: T1, human kinase Mps-1 (Homo sapiens, UniProt P33981); experiment: Mps-1 kinase assay (TR-FRET) with 10 μM ATP; type: biochemical
T1 construct: N-terminally GST-tagged human full length recombinant Mps-1 kinase; GST (N); purchased Invitrogen, Karslruhe, Germany PV4071
T1 sequence (P33981 1-857): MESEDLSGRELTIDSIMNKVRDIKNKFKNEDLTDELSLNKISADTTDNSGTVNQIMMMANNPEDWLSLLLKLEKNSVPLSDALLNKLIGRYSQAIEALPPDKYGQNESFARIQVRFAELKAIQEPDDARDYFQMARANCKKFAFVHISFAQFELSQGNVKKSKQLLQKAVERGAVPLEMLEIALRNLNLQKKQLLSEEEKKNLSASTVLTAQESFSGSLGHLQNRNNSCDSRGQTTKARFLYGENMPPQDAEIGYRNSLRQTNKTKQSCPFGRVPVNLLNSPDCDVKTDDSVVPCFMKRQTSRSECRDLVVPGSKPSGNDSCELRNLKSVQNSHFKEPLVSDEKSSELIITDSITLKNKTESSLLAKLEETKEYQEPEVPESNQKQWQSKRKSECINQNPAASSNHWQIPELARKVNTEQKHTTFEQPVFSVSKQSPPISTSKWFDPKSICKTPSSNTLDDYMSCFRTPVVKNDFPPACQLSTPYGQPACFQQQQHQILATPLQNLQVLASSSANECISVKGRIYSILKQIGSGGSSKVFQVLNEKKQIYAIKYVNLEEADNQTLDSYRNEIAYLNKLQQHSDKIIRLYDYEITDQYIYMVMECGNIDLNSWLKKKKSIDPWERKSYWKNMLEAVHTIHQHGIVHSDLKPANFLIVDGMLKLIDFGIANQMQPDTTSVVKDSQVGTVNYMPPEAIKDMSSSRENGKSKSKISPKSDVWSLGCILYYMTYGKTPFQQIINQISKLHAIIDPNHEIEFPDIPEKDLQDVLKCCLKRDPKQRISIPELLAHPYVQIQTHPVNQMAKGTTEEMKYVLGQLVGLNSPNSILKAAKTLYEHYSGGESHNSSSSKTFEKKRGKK

human kinase Mps-1 [8] = target: T1, human kinase Mps-1; experiment: Mps-1 kinase assay (TR-FRET) with 2 mM ATP; type: biochemical
[9] = comparison table with comparative examples
[10] = 96 h, HeLa cells, 4 days, read-out: Inhibition of cell proliferation, cell Line: HeLa IC50
[11] = HeLa, comparison table with comparative examples, read-out: Inhibition of cell proli-feration, cell line: HeLa, IC50
[12] = HeLa, read-out: IC50 in a HeLa cell proliferation assay
[13] = IC50 in an Mps-1 kinase assay with a concentration of 10 μM ATP
[14] = Mps-1 Inhibition, IC50 (Assay with 10 μM ATP), comparison table with comparative examples
[15] = Mps-1 Inhibition, IC50 in M (Assay with 10 μM ATP)
[16] = IC50 in an Mps-1 kinase assay with a concentration of 2 mM ATP
[17] = Mps-1 Inhibition, IC50 in M (Assay with 2 mM ATP)

Structure (SMILES) | Dog liver microsomes; Fmax [%] [1, 9] [%] | Dog liver microsomes; Fmax [%] ([1]; dog liver microsomes, 1 μM) | Human liver microsomes; Fmax [%] [2] [%] | calculated maximal oral bioavailability (Fmax) at 1 μM [2] [%] | pIC50 [3] | Rat liver microsomes; Fmax [%] [4, 9] [%] | Rat liver microsomes; Fmax [%] ([4]; rat liver microsomes, 1 μM) | pIC50 [6, 10] | pIC50 [6, 11] | pIC50 [6, 12] | pIC50 (human kinase Mps-1 [7]; [13]) | pIC50 (human kinase Mps-1 [7]; [14]) | pIC50 (human kinase Mps-1 [7]; [15]) | pIC50 (human kinase Mps-1 [8]; [16]) | pIC50 (human kinase Mps-1 [8]; [17]) | further results
COc1cc(S(C)(=O)=O)ccc1Nc1nc2ccc(-c3ccc(NC(=O)[C@H](C)c4ccc(F)cc4)cc3)cn2n1 [Compound A1, (2R)-2-(4-fluorophenyl)-N-[4-(2-{[2-methoxy-4-(methylsulfonyl)phenyl]-amino}[1,2,4]triazolo[1,5-α]pyridin-6-yl)phenyl]propanamide] | 64 | 64 | 92 | > 60 | > 5.00 | 92 | 92 | > 6.40 | > 6.40 | > 6.40 |  |  |  |  |  | dissolved amount in mg/100 mL solution ([5]; 0.1M HCl in water): <0.1 mg/100 mL; dissolved amount in mg/100 mL solution ([5]; aqueous solution, acetate buffer pH 4.5): <0.1 mg/100 mL; dissolved amount in mg/100 mL solution ([5]; aqueous solution, phopshate buffer pH 7): <0.1 mg/100 mL; dissolved amount in mg/100 mL solution ([5]; aqueous solution, phopshate buffer pH 8): <0.1 mg/100 mL; dissolved amount in mg/100 mL solution ([5]; solvent acetone): 1518.3 mg/100 mL; dissolved amount in mg/100 mL solution ([5]; solvent acetonitrile): 350.2 mg/100 mL; dissolved amount in mg/100 mL solution ([5]; solvent ethanol): 45.7 mg/100 mL; dissolved amount in mg/100 mL solution ([5]; solvent water): <0.1 mg/100 mL
C[C@@H](C(=O)Nc1ccc(-c2ccc3nc(Nc4ccc(S(C)(=O)=O)cc4OCC(F)(F)F)nn3c2)cc1)c1ccc(F)cc1 [Compound A2, (2R)-2-(4-fluorophenyl)-N-[4-(2-{[4-(methylsulfonyl)-2-(2,2,2-trifluoro-ethoxy)phenyl]amino}[1,2,4]triazolo[1,5-α]pyridin-6-yl)phenyl]-propanamide] | 55 | 55 | >95 | > 60 | > 5.00 | 93 | 93 | > 6.70 | > 6.70 | > 6.40 | ≥ 9.00 | > 9.00 | > 9.00 | > 8.70 | > 9.00 | 
COc1cc(C(=O)N2CC(F)C2)ccc1Nc1nc2ccc(-c3ccc(NC(=O)[C@H](C)c4ccc(F)cc4)cc3)cn2n1 [Compound A3, (2R)-N-{4-[2-({4-[(3-fluoroazetidin-1-yl)carbonyl]-2-methoxyphenyl}amino)-[1,2,4]triazolo[1,5-α]pyridin-6-yl]phenyl}-2-(4-fluorophenyl)propanamide] | 86 | 86 | >95 | > 60 | > 5.00 | 83 | 83 |  |  |  |  |  |  |  |  | 
COc1cc(C(=O)N2CCC2)ccc1Nc1nc2ccc(-c3ccc(NC(=O)[C@H](C)c4ccc(F)cc4)cc3)cn2n1 [Compound A4, (2R)-N-[4-(2-{[4-(azetidin-1-ylcarbonyl)-2-methoxyphenyl]amino}[1,2,4]-triazolo[1,5-α]pyridin-6-yl)phenyl]-2-(4-fluorophenyl)propanamide] | 75 | 75 | 62 | > 60 | > 5.00 | 74 | 74 | > 7.00 | > 7.00 | > 6.40 | ≥ 9.00 | > 9.00 | > 9.00 | > 8.70 | > 9.00 | 
C[C@@H](C(=O)Nc1ccc(-c2ccc3nc(Nc4ccc(C(=O)N5CC(F)C5)cc4OCC(F)(F)F)nn3c2)cc1)c1ccc(F)cc1 [Compound A5, (2R)-N-{4-[2-({4-[(3-fluoroazetidin-1-yl)carbonyl]-2-(2,2,2-trifluoroethoxy)phenyl}amino)[1,2,4]triazolo[1,5-α]pyridin-6-yl]phenyl}-2-(4-fluorophenyl)propanamide] | 57 | 57 | 69 | > 60 | > 5.00 | 89 | 89 | > 7.00 | > 7.00 | > 6.40 | ≥ 9.00 | > 9.00 | > 9.00 | > 8.70 | > 9.00 | 

From patent publication US9586958B2, “Prodrug derivatives of substituted triazolopyridines” (BAYER PHARMA AKTIENGESELLSCHAFT, priority 2013, dated 2017)
